{
  "source": "the Kinase Knowledgebase extract (Sharma et al. 2016)",
  "data": [
    {"target": "MAPK14 (human) (UniProt Q16539)", "sequence (Q16539 whole entry, looked up)": "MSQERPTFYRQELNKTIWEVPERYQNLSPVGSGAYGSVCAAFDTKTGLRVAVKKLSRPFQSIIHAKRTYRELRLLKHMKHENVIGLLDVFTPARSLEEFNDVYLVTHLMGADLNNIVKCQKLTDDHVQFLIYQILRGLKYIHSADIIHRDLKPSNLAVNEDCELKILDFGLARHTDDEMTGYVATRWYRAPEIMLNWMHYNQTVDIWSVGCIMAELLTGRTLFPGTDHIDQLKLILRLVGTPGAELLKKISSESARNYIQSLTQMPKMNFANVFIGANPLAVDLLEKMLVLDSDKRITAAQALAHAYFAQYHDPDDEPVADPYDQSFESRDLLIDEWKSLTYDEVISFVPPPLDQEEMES", "experiment": "Inhibition of MAPK14 Kinase Activity", "units": {"IC50": "nM"}, "values": [
      {"smiles": "N#Cc1ccccc1Nc1c(C(=O)N2CC[C@H](O)C2)sc2c1ccc(=O)n2-c1ccccc1", "IC50": "< 1000"},
      {"smiles": "Cc1ccc(-n2c(=O)ccc3c(Nc4cccc(C)c4)c(C(=O)N4CCC[C@@H]4CO)sc32)cc1", "IC50": "< 1000"},
      {"smiles": "NC1CCN(C(=O)c2sc3c(ccc(=O)n3-c3ccccc3)c2Nc2ccc(F)cc2F)CC1", "IC50": "< 1000"},
      {"smiles": "N[C@H]1CCN(C(=O)c2sc3c(ccc(=O)n3-c3ccccc3)c2Nc2ccc(F)cc2F)C1", "IC50": "< 1000"},
      {"smiles": "CN(C)C1CN(C(=O)c2sc3c(ccc(=O)n3-c3ccccc3)c2Nc2ccc(F)cc2F)C1", "IC50": "< 1000"},
      {"smiles": "Cc1cc(Nc2c(C(=O)N3CC(O)C3)sc3c2ccc(=O)n3-c2ccccc2)ccc1F", "IC50": "< 1000"},
      {"smiles": "Cc1cccc(-n2c(=O)ccc3c(Nc4ccc(F)c(C)c4)c(C(=O)N4CCC[C@H]4CO)sc32)c1", "IC50": "< 1000"},
      {"smiles": "Cc1cc(Nc2c(C(=O)N3CC[C@H](O)C3)sc3c2ccc(=O)n3-c2ccc(F)cc2)ccc1F", "IC50": "< 1000"},
      {"smiles": "Cc1cccc(Nc2c(C(=O)N3CCC[C@@H]3CO)sc3c2ccc(=O)n3-c2cccc(C)c2)c1", "IC50": "< 1000"},
      {"smiles": "O=C(c1sc2c(ccc(=O)n2-c2ccc(F)cc2)c1Nc1ccc(F)cc1F)N1CCC[C@@H]1CO", "IC50": "< 1000"},
      {"smiles": "Cc1cc(Nc2c(C(=O)N3CC[C@H](N)C3)sc3c2ccc(=O)n3-c2ccccc2)ccc1F", "IC50": "< 1000"},
      {"smiles": "Cc1cc(Nc2c(C(=O)N3CCC[C@@H]3CO)sc3c2ccc(=O)n3-c2ccc(Cl)cc2)ccc1F", "IC50": "< 1000"},
      {"smiles": "Cc1ccc(-n2c(=O)ccc3c(Nc4ccc(F)cc4F)c(C(=O)N4CC[C@H](O)C4)sc32)cc1", "IC50": "< 1000"},
      {"smiles": "O=C(c1sc2c(ccc(=O)n2-c2ccccc2)c1Nc1ccc(F)cc1F)N1CC[C@@H](O)C1", "IC50": "< 1000"},
      {"smiles": "O=C(c1sc2c(ccc(=O)n2-c2ccccc2Cl)c1Nc1ccc(F)cc1F)N1CC[C@H](O)C1", "IC50": "< 1000"},
      {"smiles": "Cc1ccc(-n2c(=O)ccc3c(Nc4ccc(F)c(C)c4)c(C(=O)N4CCC[C@@H]4CO)sc32)cc1", "IC50": "< 1000"},
      {"smiles": "O=C(c1sc2c(ccc(=O)n2-c2ccccc2)c1Nc1ccc(F)cc1F)N1CCCC(O)C1", "note": "(configuration not stated)", "IC50": "< 1000"},
      {"smiles": "O=C(c1sc2c(ccc(=O)n2-c2ccccc2)c1Nc1ccc(F)cc1F)N1C[C@@H](O)[C@H](O)C1", "IC50": "< 1000"},
      {"smiles": "O=C(c1sc2c(ccc(=O)n2-c2ccccc2)c1Nc1ccccc1)N1CCC[C@@H]1CO", "IC50": "< 1000"},
      {"smiles": "NC1CN(C(=O)c2sc3c(ccc(=O)n3-c3ccccc3)c2Nc2ccc(F)cc2F)C1", "IC50": "< 1000"},
      {"smiles": "Cc1cccc(-n2c(=O)ccc3c(Nc4ccc(F)c(C)c4)c(C(=O)N4CCC[C@@H]4CO)sc32)c1", "IC50": "< 1000"},
      {"smiles": "O=C(c1sc2c(ccc(=O)n2-c2ccccc2)c1Nc1ccc(F)cc1F)N1C[C@@H](O)[C@@H](O)C1", "IC50": "< 1000"},
      {"smiles": "Cc1cc(Nc2c(C(=O)N3CC[C@@H](N(C)C)C3)sc3c2ccc(=O)n3-c2ccccc2)ccc1F", "IC50": "< 1000"},
      {"smiles": "O=C(c1sc2c(ccc(=O)n2-c2ccccc2)c1Nc1ccc(F)c(Cl)c1)N1CCC[C@@H]1CO", "IC50": "< 1000"},
      {"smiles": "Cc1cc(Nc2c(C(=O)N3CCC[C@@H]3CO)sc3c2ccc(=O)n3-c2ccccc2)ccc1F", "IC50": "< 1000"},
      {"smiles": "O=C(c1sc2c(ccc(=O)n2CC2CC2)c1Nc1ccccc1)N1CCC[C@@H]1CO", "IC50": "< 1000"},
      {"smiles": "O=C(c1sc2c(ccc(=O)n2-c2ccc(F)cc2)c1Nc1ccc(F)cc1F)N1CC[C@H](O)C1", "IC50": "< 1000"},
      {"smiles": "COC[C@@H]1CCCN1C(=O)c1sc2c(ccc(=O)n2-c2ccccc2)c1Nc1ccccc1", "IC50": "< 1000"},
      {"smiles": "O=C(c1sc2c(ccc(=O)n2-c2ccccc2Cl)c1Nc1ccc(F)cc1F)N1CC[C@@H](O)C1", "IC50": "< 1000"},
      {"smiles": "N#Cc1ccccc1Nc1c(C(=O)N2CC[C@@H](O)C2)sc2c1ccc(=O)n2-c1ccccc1", "IC50": "< 1000"},
      {"smiles": "N#Cc1ccccc1Nc1c(C(=O)N2CCC[C@H]2CO)sc2c1ccc(=O)n2-c1ccccc1", "IC50": "< 1000"},
      {"smiles": "O=C(c1sc2c(ccc(=O)n2-c2ccccc2)c1Nc1ccc(F)cc1F)N1CCC[C@@H]1CO", "IC50": "< 1000"},
      {"smiles": "O=C(c1sc2c(ccc(=O)n2-c2ccccc2)c1Nc1ccccc1Cl)N1CCC[C@@H]1CO", "IC50": "< 1000"},
      {"smiles": "O=C(c1sc2c(ccc(=O)n2-c2ccccc2)c1Nc1ccccc1Cl)N1CCC[C@H]1CO", "IC50": "< 1000"},
      {"smiles": "CN(C)[C@@H]1CCN(C(=O)c2sc3c(ccc(=O)n3-c3ccccc3)c2Nc2ccc(F)cc2F)C1", "IC50": "< 1000"},
      {"smiles": "O=C(c1sc2c(ccc(=O)n2-c2ccccc2)c1Nc1ccc(F)cc1F)N1CCC[C@H]1CO", "IC50": "< 1000"},
      {"smiles": "NC[C@@H]1CCCN1C(=O)c1sc2c(ccc(=O)n2-c2ccccc2)c1Nc1ccc(F)cc1F", "IC50": "< 1000"},
      {"smiles": "O=C(c1sc2c(ccc(=O)n2-c2ccccc2Cl)c1Nc1ccc(F)cc1F)N1CCC[C@@H]1CO", "IC50": "< 1000"},
      {"smiles": "Cc1cc(Nc2c(C(=O)N3CCC[C@H]3CN)sc3c2ccc(=O)n3-c2ccccc2)ccc1F", "IC50": "< 1000"},
      {"smiles": "Cc1cccc(Nc2c(C(=O)N3CCC[C@@H]3CO)sc3c2ccc(=O)n3-c2ccccc2)c1", "IC50": "< 1000"},
      {"smiles": "N#Cc1cccc(Nc2c(C(=O)N3CCC[C@@H]3CO)sc3c2ccc(=O)n3-c2ccccc2)c1", "IC50": "< 1000"},
      {"smiles": "O=c1ccc2c(Nc3ccc(F)cc3F)c(S(=O)(=O)N3CCC[C@@H]3CO)sc2n1-c1ccccc1", "IC50": "< 1000"},
      {"smiles": "O=C(c1sc2c(ccc(=O)n2-c2ccccc2)c1Nc1ccc(F)cc1F)N1C[C@H](O)[C@@H](O)C1", "IC50": "< 1000"},
      {"smiles": "Cc1cc(Nc2c(C(=O)N3CC[C@H](O)C3)sc3c2ccc(=O)n3-c2ccccc2)ccc1F", "IC50": "< 1000"},
      {"smiles": "CN(C)[C@H]1CCN(C(=O)c2sc3c(ccc(=O)n3-c3ccccc3)c2Nc2ccc(F)cc2F)C1", "IC50": "< 1000"},
      {"smiles": "Cc1cc(Nc2c(C(=O)N3CC[C@H](N(C)C)C3)sc3c2ccc(=O)n3-c2ccccc2)ccc1F", "IC50": "< 1000"},
      {"smiles": "Cc1cc(Nc2c(C(=O)N3CCC[C@@H]3CO)sc3c2ccc(=O)n3-c2ccc(F)cc2)ccc1F", "IC50": "< 1000"},
      {"smiles": "CN(C)C1CCN(C(=O)c2sc3c(ccc(=O)n3-c3ccccc3)c2Nc2ccc(F)cc2F)CC1", "IC50": "< 1000"},
      {"smiles": "Cc1cc(Nc2c(C(=O)N3CCC[C@@H]3CO)sc3c2ccc(=O)n3-c2ccccc2Cl)ccc1F", "IC50": "< 1000"},
      {"smiles": "Cc1ccc(-n2c(=O)ccc3c(Nc4ccc(F)cc4F)c(C(=O)N4CC[C@@H](O)C4)sc32)cc1", "IC50": "< 1000"},
      {"smiles": "NC[C@H]1CCCN1C(=O)c1sc2c(ccc(=O)n2-c2ccccc2)c1Nc1ccc(F)cc1F", "IC50": "< 1000"},
      {"smiles": "Cc1ccc(-n2c(=O)ccc3c(Nc4ccc(F)c(C)c4)c(C(=O)N4CC[C@H](O)C4)sc32)cc1", "IC50": "< 1000"},
      {"smiles": "Cc1cc(Nc2c(C(=O)N3CCC[C@H]3CO)sc3c2ccc(=O)n3-c2ccccc2)ccc1F", "IC50": "< 1000"},
      {"smiles": "Cc1ccc(-n2c(=O)ccc3c(Nc4ccc(F)c(C)c4)c(C(=O)N4CC[C@@H](O)C4)sc32)cc1", "IC50": "< 1000"},
      {"smiles": "O=C(c1sc2c(ccc(=O)n2-c2ccccc2)c1Nc1cccc(Cl)c1)N1CCC[C@@H]1CO", "IC50": "< 1000"},
      {"smiles": "N[C@@H]1CCN(C(=O)c2sc3c(ccc(=O)n3-c3ccccc3)c2Nc2ccc(F)cc2F)C1", "IC50": "< 1000"},
      {"smiles": "O=C(c1sc2c(ccc(=O)n2-c2ccccc2)c1Nc1ccc(F)cc1F)N1CC[C@H](O)C1", "IC50": "< 1000"},
      {"smiles": "O=C(c1sc2c(ccc(=O)n2-c2ccccc2)c1Nc1ccc(F)cc1F)N1CC(O)C1", "IC50": "< 1000"},
      {"smiles": "N#Cc1ccccc1Nc1c(C(=O)N2CCC[C@@H]2CO)sc2c1ccc(=O)n2-c1ccccc1", "IC50": "< 1000"},
      {"smiles": "Cc1cc(Nc2c(C(=O)N3CC[C@@H](O)C3)sc3c2ccc(=O)n3-c2ccccc2)ccc1F", "IC50": "< 1000"},
      {"smiles": "Cc1cc(Nc2c(C(=O)N3CC[C@H](O)C3)sc3c2ccc(=O)n3-c2ccccc2Cl)ccc1F", "IC50": "< 1000"},
      {"smiles": "O=C(c1sc2c(ccc(=O)n2-c2ccccc2)c1Nc1ccccc1)N1CCC[C@H]1CO", "IC50": "< 1000"},
      {"smiles": "Cc1cc(Nc2c(C(=O)N3CC[C@@H](N)C3)sc3c2ccc(=O)n3-c2ccccc2)ccc1F", "IC50": "< 1000"},
      {"smiles": "O=C(c1sc2c(ccc(=O)n2-c2ccc(F)cc2)c1Nc1ccc(F)cc1F)N1CC[C@@H](O)C1", "IC50": "< 1000"},
      {"smiles": "NC1CCN(C(=O)c2sc3c(ccc(=O)n3-c3ccccc3)c2Nc2ccc(F)cc2F)C1", "note": "(configuration not stated)", "IC50": "< 1000"},
      {"smiles": "O=C(c1sc2c(ccc(=O)n2-c2ccccc2)c1Nc1ccc(F)cc1F)N1CCC(O)CC1", "IC50": "< 1000"},
      {"smiles": "Cc1cccc(Nc2c(C(=O)N3CC[C@H](O)C3)sc3c2ccc(=O)n3-c2ccccc2Cl)c1", "IC50": "< 1000"},
      {"smiles": "Cc1ccc(-n2c(=O)ccc3c(Nc4ccc(F)cc4F)c(C(=O)N4CCC[C@@H]4CO)sc32)cc1", "IC50": "< 1000"},
      {"smiles": "O=C(c1sc2c(ccc(=O)n2-c2ccccc2)c1Nc1ccc(F)c(Cl)c1)N1CCC[C@H]1CO", "IC50": "< 1000"},
      {"smiles": "COC[C@H]1CCCN1C(=O)c1sc2c(ccc(=O)n2-c2ccccc2)c1Nc1ccccc1", "IC50": "< 1000"},
      {"smiles": "CC(C)(O)[C@@H]1CCCN1C(=O)c1sc2c(ccc(=O)n2-c2ccccc2)c1Nc1ccc(F)cc1F", "IC50": "< 1000"},
      {"smiles": "CC(C)(O)[C@H]1CCCN1C(=O)c1sc2c(ccc(=O)n2-c2ccccc2)c1Nc1ccc(F)cc1F", "IC50": "< 1000"}
    ]}
  ]
}
